# Source: the supplement of paper PMC10307832
# Key:
# Experiment in all cases: relative viability (nuclei count vs DMSO), 5 days (fraction); higher = more cells survive
# NCI-H358 = system: NCI-H358
# Outline: (§1)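 Relative viability equals treated-well nuclei counts divided by vehicle-well nuclei counts. Counts came from 4× images of lung cancer cell lines grown in 1536-well plates for 5 days after pin-tool dosing on the day after seeding. Dosing used one drug alone or a fixed anchor-drug dose plus five library-drug doses (not always all listed) in √10 steps, and values are medians of duplicate plates.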
# LC-2-ad = system: LC-2-ad
# Outline: as §1
# NCI-H460 = system: NCI-H460
# Outline: as §1
# HCC-78 = system: HCC-78
# Outline: as §1
# NCI-H1975 = system: NCI-H1975
# Outline: as §1
# SW 1573 = system: SW 1573
# Outline: as §1
# LOU-NH91 = system: LOU-NH91
# Outline: as §1
# NCI-H1915 = system: NCI-H1915
# Outline: as §1
# A-427 = system: A-427
# Outline: as §1
# NCI-H647 = system: NCI-H647
# Outline: as §1
# SK-LU-1 = system: SK-LU-1
# Outline: as §1
# HOP-62 = system: HOP-62
# Outline: as §1
# NCI-H1755 = system: NCI-H1755
# Outline: as §1
# HCC-15 = system: HCC-15
# Outline: as §1
# NCI-H2126 = system: NCI-H2126
# Outline: as §1
# PC-3 [JPC-3] = system: PC-3 [JPC-3]
# Outline: as §1
# NCI-H2228 = system: NCI-H2228
# Outline: as §1
# NCI-H2347 = system: NCI-H2347
# Outline: as §1
# RERF-LC-KJ = system: RERF-LC-KJ
# Outline: as §1
# NCI-H1734 = system: NCI-H1734
# Outline: as §1
# LXF-289 = system: LXF-289
# Outline: as §1
# NCI-H1792 = system: NCI-H1792
# Outline: as §1
smiles,measurement,setting,value
CC(C)Oc1cc(Nc2nc(N[C@@H](C)c3ccc(F)cn3)ncc2Cl)n[nH]1 [AZ23] + C[C@]1(O)C[C@@H](c2nc(-c3ccc4ccc(-c5ccccc5)nc4c3)c3c(N)nccn32)C1 [Linsitinib] (partner 1 µM),relative viability,NCI-H358; first compound 0.01 µM,0.742
same,relative viability,NCI-H358; first compound 0.03162 µM,0.771
same,relative viability,NCI-H358; first compound 0.3162 µM,0.793
same,relative viability,LC-2-ad; first compound 0.01 µM,0.941
same,relative viability,LC-2-ad; first compound 0.03162 µM,0.931
same,relative viability,LC-2-ad; first compound 0.3162 µM,0.851
same,relative viability,NCI-H460; first compound 0.01 µM,0.366
same,relative viability,NCI-H460; first compound 0.03162 µM,0.933
same,relative viability,NCI-H460; first compound 0.3162 µM,0.851
same,relative viability,HCC-78; first compound 0.01 µM,0.495
same,relative viability,HCC-78; first compound 0.03162 µM,0.431
same,relative viability,HCC-78; first compound 0.3162 µM,0.434
same,relative viability,NCI-H1975; first compound 0.01 µM,1.13
same,relative viability,NCI-H1975; first compound 0.03162 µM,1.06
same,relative viability,NCI-H1975; first compound 0.3162 µM,0.972
same,relative viability,SW 1573; first compound 0.01 µM,0.786
same,relative viability,SW 1573; first compound 0.03162 µM,0.937
same,relative viability,SW 1573; first compound 0.3162 µM,0.691
same,relative viability,LOU-NH91; first compound 0.01 µM,0.85
same,relative viability,LOU-NH91; first compound 0.03162 µM,0.966
same,relative viability,LOU-NH91; first compound 0.3162 µM,0.917
same,relative viability,NCI-H1915; first compound 0.01 µM,1.13
same,relative viability,NCI-H1915; first compound 0.03162 µM,1.1
same,relative viability,NCI-H1915; first compound 0.3162 µM,1.09
same,relative viability,A-427; first compound 0.01 µM,1.24
same,relative viability,A-427; first compound 0.03162 µM,1.11
same,relative viability,A-427; first compound 0.3162 µM,1.16
same,relative viability,NCI-H647; first compound 0.01 µM,1.48
same,relative viability,NCI-H647; first compound 0.03162 µM,1.17
same,relative viability,NCI-H647; first compound 0.3162 µM,1.26
same,relative viability,SK-LU-1; first compound 0.01 µM,0.893
same,relative viability,SK-LU-1; first compound 0.03162 µM,1.16
same,relative viability,SK-LU-1; first compound 0.3162 µM,0.932
same,relative viability,HOP-62; first compound 0.01 µM,1.09
same,relative viability,HOP-62; first compound 0.03162 µM,0.992
same,relative viability,HOP-62; first compound 0.3162 µM,0.95
same,relative viability,NCI-H1755; first compound 0.01 µM,1.13
same,relative viability,NCI-H1755; first compound 0.03162 µM,1.03
same,relative viability,NCI-H1755; first compound 0.3162 µM,1.06
same,relative viability,HCC-15; first compound 0.01 µM,0.916
same,relative viability,HCC-15; first compound 0.03162 µM,0.906
same,relative viability,HCC-15; first compound 0.3162 µM,0.875
same,relative viability,NCI-H2126; first compound 0.01 µM,0.737
same,relative viability,NCI-H2126; first compound 0.03162 µM,0.739
same,relative viability,NCI-H2126; first compound 0.3162 µM,0.684
same,relative viability,PC-3 [JPC-3]; first compound 0.01 µM,1.03
same,relative viability,PC-3 [JPC-3]; first compound 0.03162 µM,1.04
same,relative viability,PC-3 [JPC-3]; first compound 0.3162 µM,0.973
same,relative viability,NCI-H2228; first compound 0.01 µM,0.828
same,relative viability,NCI-H2228; first compound 0.03162 µM,0.727
same,relative viability,NCI-H2228; first compound 0.3162 µM,0.473
same,relative viability,NCI-H2347; first compound 0.01 µM,1.03
same,relative viability,NCI-H2347; first compound 0.03162 µM,0.993
same,relative viability,NCI-H2347; first compound 0.3162 µM,0.926
same,relative viability,RERF-LC-KJ; first compound 0.01 µM,0.833
same,relative viability,RERF-LC-KJ; first compound 0.03162 µM,0.992
same,relative viability,RERF-LC-KJ; first compound 0.3162 µM,0.987
same,relative viability,NCI-H1734; first compound 0.01 µM,0.921
same,relative viability,NCI-H1734; first compound 0.03162 µM,0.814
same,relative viability,NCI-H1734; first compound 0.3162 µM,0.894
same,relative viability,LXF-289; first compound 0.01 µM,1.13
same,relative viability,LXF-289; first compound 0.03162 µM,1.1
same,relative viability,LXF-289; first compound 0.3162 µM,0.941
same,relative viability,NCI-H1792; first compound 0.01 µM,0.565
same,relative viability,NCI-H1792; first compound 0.03162 µM,0.597
same,relative viability,NCI-H1792; first compound 0.3162 µM,0.61
